Source: patent US20120034193A1, “TREATMENT OF NEUROTROPHIC FACTOR MEDIATED DISORDERS” (priority 2009, published 2012)

Experiments:
[1] = system: Rat dopaminergic neurones; experiment: Pre-treatment against MPP+-induced loss of dopaminergic neurones; format: cell-based; details: 30 nM, 24 h before and during MPP+ 2 μM 48 h
Experimental: Rat dopaminergic neurones were cultured as previously described (Schinelli et al., Journal of Neurochemistry, 1988, 50, pp. 1900-1907). On day 5, the cultures were washed and placed in fresh medium containing test compounds (30 nM), vehicle (DMSO, 0.25%) or a combination of BDNF (1.85 nM) and GDNF (0.17 nM) for 24 h.
Exposure of rat primary dopaminergic neurones to MPP^+ (2 μM, 24 h) causes a significant decrease in the number of dopaminergic neurones compared to the control. On day 6, MPP^+ (2 μM) was added to the cultures in the presence of test compounds, vehicle or a combination of BDNF and GDNF for a further 48 h. MPP^+ induces neuronal death, via inhibition of complex I in the mitochondria and consequent ATP depletion, resulting in the production of free radicals and induction of apoptosis. After the incubation period, the cultures were fixed with paraformaldehyde in PBS (4%). After fixation, the neurones were permeabilised with Triton ×100 (0.05%) for 30 min. The neurones were then incubated with anti-tyrosine hydroxylase (TH) at 37° C. for 2 h. The neurones were washed three times with PBS, and then incubated with goat anti mouse/Cy3 for 2 h at 37° C. The neurones were mounted and examined with the fluorescence microscopy.

Rat cortical neurones = experiment: Neuronal survival and neurite outgrowth of cortical neurones cultured in the absence of serum; format: cell-based; details: 30 nM, one day, no serum
Experimental: Rat cortical neurones were cultured following the method described above.
The test compounds were added for 24 h.
Rat cortical neurones were exposed to sarsasapogenin, smilagenin (30 nM) or vehicle (DMSO, 0.25%) in the absence FBS or FCS for one day. Cortical neurones were stained using a monoclonal antibody anti β-tubulin diluted and an anti mouse Immunoglobulin G diluted. These antibodies stained neurone cell bodies (quantifying the neuroprotective effect) and neurites (quantifying the neurotrophic effect). An epifluorecence microscope (magnification ×20) with a camera took 2 pictures per well (10 pictures per condition). Analyses of the number of cells labelled with anti β-tubulin antibodies and of the total number of cells was performed using LUCIA 6.0 software.

[2] = system: rat primary cortical neurones; experiment: Pre-treatment against glutamate-induced damage (LDH) in cortical neurones; format: cell-based; details: for Neuronal survival (% of control): 24 h before and 24 h after glutamate 100 μM 10 min; for Toxicity at the plateau of activity: nanomolar concentration, cortical neurones in vitro
Experimental: Exposure of rat primary cortical neurones to glutamate increases lactate dehydrogenase (LDH) activity measured 24 h after glutamate exposure, indicating significant neuronal damage. Rat cortical neurones were cultured by modification of a method previously described (Singer, et al., Neuroscience Letters, 1996, 212, pp. 13-16). On day 10 of culture, the medium was changed to a serum-free defined medium. On day 12, the cultures were washed and placed for 24 h in fresh medium containing test compound or vehicle (DMSO, 0.25%). On day 13 neurones were exposed to glutamate (100 μM; 10 min) at 37° C. The cultures were then washed with, and placed in, fresh medium supplemented with test compound or vehicle for a further 24 h before LDH was measured. Neuronal damage was assessed by measuring LDH activity in the media at 24 h after glutamate exposure.

[3] = system: Rat primary dopaminergic neurones; experiment: Reversal of MPP+-induced damage in dopaminergic neurones; format: cell-based; details: 30 nM for 48 h after MPP+ 2 μM 24 h
Experimental: Rat primary dopaminergic neurones were prepared as described above. On day 5, MPP^+ (2 μM) was added to the cultures for 24 h in culture medium at 37° C. in 5% CO2/95% air atmosphere. Exposure of rat primary dopaminergic neurones to MPP^+ (2 μM, 24 h) causes a significant decrease in the number of dopaminergic neurones compared to the control. On day 6 the medium was removed and fresh medium containing vehicle (DMSO, 0.25%), sarsasapogenin, smilagenin or a combinations of BDNF and GDNF was added. After 48 h, the extent of dopaminergic damage was determined as detailed above.

[4] = Tissue distribution after a single oral administration, dog; format: in vivo
[5] = system: Rat spinal motor neurones; experiment: Reversal of glutamate-induced damage in spinal motor neurones; format: cell-based
Experimental: The rat spinal motor neurones were prepared as detailed above. On day 10, the medium was removed and the cultures exposed to glutamate (4 μM) for 10 min at 37° C. in 5% CO2/95% air atmosphere in defined medium. After the glutamate exposure, cultures were washed with DMEM at 37° C. then placed in fresh culture medium containing sarsasapogenin, smilagenin, vehicle or BDNF. After 48 h, the extent of motor neurone damage was determined as detailed above. This Example develops the work reported in Example 8 of PCT patent application No. WO-A-03/082893.

[6] = Dog F, 25 mg/kg single oral, 4 h
[7] = Dog F, 25 mg/kg single oral, 24 h
[8] = Dog F, 25 mg/kg single oral, 168 h
[9] = Dog M, 25 mg/kg single oral, 4 h
[10] = Dog M, 25 mg/kg single oral, 24 h
[11] = Dog M, 25 mg/kg single oral, 168 h
[12] = 0.03 nM for 48 h after glutamate 4 μM 10 min
[13] = 3 nM for 48 h after glutamate 4 μM 10 min
[14] = 300 nM for 48 h after glutamate 4 μM 10 min
[15] = Dog M, 10 mg/kg single oral, 2 h
[16] = Dog M, 10 mg/kg single oral, 24 h
[17] = Dog M, 10 mg/kg single oral, 168 h

## C[C@H]1CC[C@@]2(OC1)O[C@H]1C[C@H]3[C@@H]4CC[C@@H]5C[C@@H](O)CC[C@]5(C)[C@H]4CC[C@]3(C)[C@H]1[C@@H]2C [Sarsasapogenin, sarsasapogenin]
[1]
  Neuronal survival (% of control): 88.73 ± 4.39 % of control
Rat cortical neurones
  Neurite outgrowth (% of control): 152.85 ± 10.68 % of control
  Neuronal survival (% of control): 149.55 ± 6.22 % of control
[2]; 1 nM
  Neuronal survival (% of control): 76.88 ± 2.79 % of control
[2]; 3 nM
  Neuronal survival (% of control): 77.23 ± 2.62 % of control
[2]; 10 nM
  Neuronal survival (% of control): 73.50 ± 3.05 % of control
[2]; 30 nM
  Neuronal survival (% of control): 78.91 ± 2.97 % of control
[2]; 100 nM
  Neuronal survival (% of control): 76.30 ± 4.15 % of control
[2]
  Toxicity at the plateau of activity: without causing any toxicity
[3]
  Neuronal survival (% of control): 104.30 ± 5.63 % of control
[4]; [6]
  Concentration of compound, Brain: 0.128 ng equivalents/g tissue
  Concentration of compound, Plasma: 0.184 ng equivalents/g tissue
  Concentration of compound, Spinal cord: 0.515 ng equivalents/g tissue
[4]; [7]
  Concentration of compound, Brain: 8.64 ng equivalents/g tissue
  Concentration of compound, Plasma: 1.79 ng equivalents/g tissue
  Concentration of compound, Spinal cord: 5.79 ng equivalents/g tissue
[4]; [8]
  Concentration of compound, Brain: 0.535 ng equivalents/g tissue
  Concentration of compound, Plasma: 0.115 ng equivalents/g tissue
  Concentration of compound, Spinal cord: 1.43 ng equivalents/g tissue
[4]; [9]
  Concentration of compound, Brain: 1.37 ng equivalents/g tissue
  Concentration of compound, Plasma: 0.641 ng equivalents/g tissue
  Concentration of compound, Spinal cord: 1.13 ng equivalents/g tissue
[4]; [10]
  Concentration of compound, Brain: 2.33 ng equivalents/g tissue
  Concentration of compound, Plasma: 0.196 ng equivalents/g tissue
  Concentration of compound, Spinal cord: 1.82 ng equivalents/g tissue
[4]; [11]
  Concentration of compound, Brain: 0.605 ng equivalents/g tissue
  Concentration of compound, Plasma: 0.309 ng equivalents/g tissue
  Concentration of compound, Spinal cord: 1.49 ng equivalents/g tissue
[5]; [12]
  Neuronal survival (% of control): 101.09 ± 4.12 % of control
[5]; [13]
  Neuronal survival (% of control): 108.10 ± 3.56 % of control
[5]; [14]
  Neuronal survival (% of control): 120.43 ± 7.46 % of control

## C[C@@H]1CC[C@@]2(OC1)O[C@H]1C[C@H]3[C@@H]4CC[C@@H]5C[C@@H](O)CC[C@]5(C)[C@H]4CC[C@]3(C)[C@H]1[C@@H]2C [Smilagenin, smilagenin]
[1]
  Neuronal survival (% of control): 97.91 ± 3.63 % of control
Rat cortical neurones
  Neurite outgrowth (% of control): 173.89 ± 9.23 % of control
  Neuronal survival (% of control): 155.36 ± 4.75 % of control
[2]; 1 nM
  Neuronal survival (% of control): 81.53 ± 1.66 % of control
[2]; 3 nM
  Neuronal survival (% of control): 78.19 ± 1.85 % of control
[2]; 10 nM
  Neuronal survival (% of control): 82.50 ± 1.00 % of control
[2]; 30 nM
  Neuronal survival (% of control): 89.86 ± 3.55 % of control
[2]; 100 nM
  Neuronal survival (% of control): 82.45 ± 2.18 % of control
[2]
  Toxicity at the plateau of activity: without causing any toxicity
[3]
  Neuronal survival (% of control): 113.44 ± 4.62 % of control
[4]; [15]
  Concentration of compound, Brain: 3670 ng equivalents/g tissue
  Concentration of compound, Plasma: 3878 ng equivalents/g tissue
  Concentration of compound, Spinal cord: 1805 ng equivalents/g tissue
[4]; [16]
  Concentration of compound, Brain: 5813 ng equivalents/g tissue
  Concentration of compound, Plasma: 1508 ng equivalents/g tissue
  Concentration of compound, Spinal cord: 3647 ng equivalents/g tissue
[4]; [17]
  Concentration of compound, Brain: 1727 ng equivalents/g tissue
  Concentration of compound, Plasma: 1129 ng equivalents/g tissue
  Concentration of compound, Spinal cord: 3165 ng equivalents/g tissue
[5]; [12]
  Neuronal survival (% of control): 90.98 ± 2.46 % of control
[5]; [13]
  Neuronal survival (% of control): 101.53 ± 3.18 % of control
[5]; [14]
  Neuronal survival (% of control): 106.61 ± 4.24 % of control
